# Assays:
# [1] = Stability study, effect of pH: temozolomide solutions in various buffers; format: physicochemical
# [2] = solid powder, 1 month 40° C./75% RH; weight percentage
# Method: In the tested formulations, the weight percentages of certain degradation products were measured.
# [3] = only stable in acidic conditions; cited from earlier work
# [4] = Effect of controlled preparation temperature on dissolution of temozolomide
smiles,measurement,setting,value
"Cn1nnc2c(C(N)=O)ncn2c1=O [Temozolomide, 3,4-dihydro-3-methyl-4-oxoimidazo[5,1-d]-as-tetrazine-8-carboxamide]",Stability after 1 hr (temozolomide as % of amount originally added),[1]; 0.1N HCl pH = 1.1,101.7%
same,Stability after 5 hr,[1]; 0.1N HCl pH = 1.1,100.2%
same,Stability after 6 hr,[1]; 0.1N HCl pH = 1.1,99.8%
same,Stability after 1 hr (temozolomide as % of amount originally added),[1]; Acetate Buffer pH = 4.5,99.2%
same,Stability after 5 hr,[1]; Acetate Buffer pH = 4.5,98.1%
same,Stability after 6 hr,[1]; Acetate Buffer pH = 4.5,98.2%
same,Stability after 1 hr (temozolomide as % of amount originally added),[1]; Hydrochloride Buffer pH = 2.2,99.1%
same,Stability after 5 hr,[1]; Hydrochloride Buffer pH = 2.2,98.6%
same,Stability after 6 hr,[1]; Hydrochloride Buffer pH = 2.2,99.0%
same,Stability after 5 min,[1]; Phosphate Buffer pH = 6.8,100.1%
same,Stability after 10 min,[1]; Phosphate Buffer pH = 6.8,99.8%
same,Stability after 15 min,[1]; Phosphate Buffer pH = 6.8,99.0%
same,Stability after 30 min,[1]; Phosphate Buffer pH = 6.8,98.0%
same,Stability after 5 min,[1]; Phosphate Buffer pH = 7.5,99.4%
same,Stability after 10 min,[1]; Phosphate Buffer pH = 7.5,99.0%
same,Stability after 15 min,[1]; Phosphate Buffer pH = 7.5,97.8%
same,Stability after 30 min,[1]; Phosphate Buffer pH = 7.5,90.5%
same,Stability after 5 min,[1]; Water,99.9%
same,Stability after 10 min,[1]; Water,99.6%
same,Stability after 15 min,[1]; Water,98.8%
same,Stability after 30 min,[1]; Water,97.6%
same,Dacarbazine-related compound A,[2],8.4%
same,Max. Unknown,[2],0.22%
same,pH at which stable,[3],less than 5
same,Observation (dissolution of temozolomide),"[4]; Prep Temp 10 ° C., About 3 hrs",Temozolomide did not dissolve
same,Observation (dissolution of temozolomide),"[4]; Prep Temp 15 ° C., About 2 hrs",Temozolomide did not dissolve
same,Observation (dissolution of temozolomide),[4]; Prep Temp 18 ° C.,Temozolomide dissolved
same,Time (to dissolve),[4]; Prep Temp 18 ° C.,About 0.5 to 0.75 hrs
same,Observation (dissolution of temozolomide),[4]; Prep Temp 19 ° C.,Temozolomide dissolved
same,Time (to dissolve),[4]; Prep Temp 19 ° C.,About 0.5 to 0.75 hrs
same,Observation (dissolution of temozolomide),[4]; Prep Temp 20 ° C.,Temozolomide dissolved
same,Time (to dissolve),[4]; Prep Temp 20 ° C.,About 0.5 to 0.75 hrs
same,Observation (dissolution of temozolomide),[4]; Prep Temp 24 ° C.,Temozolomide dissolved
same,Time (to dissolve),[4]; Prep Temp 24 ° C.,About 0.5 to 0.75 hrs
same,Observation (dissolution of temozolomide),[4]; Prep Temp 25 ° C.,Temozolomide dissolved
same,Time (to dissolve),[4]; Prep Temp 25 ° C.,About 0.5 to 0.75 hrs

# Reference: US9211336B2, “Antioxidant stabilized pharmaceutical formulations comprising antineoplastic compounds” (Hikma Pharmaceuticals, priority 2013, dated 2015)
